According to publication PMC3315157 (Biochemistry, 2012):
Several values for one entry are separate records, joined by “and”; a condition that tells them apart may be missing. Equal entries are not always repeated. Where two headings read alike, the source gives them in different places.

Assays:
Torpedo nAChR [1] = biological target: T1, Torpedo nAChR (Tetronarce californica, UniProt P02710+P02712+P02714+P02718); experiment: [125I]-SADU-3-72 competition binding assay
Torpedo nAChR [2] = biological target: T1, Torpedo nAChR; type: cell-based
Torpedo nAChR [3] = biological target: T1, Torpedo nAChR; experiment: biochemical; type: binding; settings: for reduction of agonist-enhanced [125I]SADU-3-72 photolabeling within αV8-20K: 130 μM bupropion (separate experiment) or TCP
[4] = test system: α1β1εδ (adult mouse muscle-type) nAChRs; settings: read-out: IC50, impaired channel opening; binding to the resting nAChR; HEK-293 cells; cited from earlier work
[5] = desensitized state (Carb), TCP 130 μM, native nAChR-rich membranes, n=1
[6] = resting state (+α-BgTx), tetracaine 130 μM, native nAChR-rich membranes, n=1

T1 sequence (P02710 25-461): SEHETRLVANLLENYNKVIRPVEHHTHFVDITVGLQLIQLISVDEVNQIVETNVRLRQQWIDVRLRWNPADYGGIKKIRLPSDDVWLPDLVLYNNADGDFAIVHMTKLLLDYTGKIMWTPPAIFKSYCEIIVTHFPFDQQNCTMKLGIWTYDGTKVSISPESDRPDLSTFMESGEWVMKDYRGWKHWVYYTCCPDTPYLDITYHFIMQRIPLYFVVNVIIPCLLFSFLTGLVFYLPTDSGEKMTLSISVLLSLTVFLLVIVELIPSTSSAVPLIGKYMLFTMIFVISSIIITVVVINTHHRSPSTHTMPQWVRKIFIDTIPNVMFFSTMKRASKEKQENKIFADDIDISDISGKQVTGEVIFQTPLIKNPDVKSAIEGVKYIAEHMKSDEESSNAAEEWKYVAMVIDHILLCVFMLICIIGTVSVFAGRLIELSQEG
T1 sequence (P02712 25-493): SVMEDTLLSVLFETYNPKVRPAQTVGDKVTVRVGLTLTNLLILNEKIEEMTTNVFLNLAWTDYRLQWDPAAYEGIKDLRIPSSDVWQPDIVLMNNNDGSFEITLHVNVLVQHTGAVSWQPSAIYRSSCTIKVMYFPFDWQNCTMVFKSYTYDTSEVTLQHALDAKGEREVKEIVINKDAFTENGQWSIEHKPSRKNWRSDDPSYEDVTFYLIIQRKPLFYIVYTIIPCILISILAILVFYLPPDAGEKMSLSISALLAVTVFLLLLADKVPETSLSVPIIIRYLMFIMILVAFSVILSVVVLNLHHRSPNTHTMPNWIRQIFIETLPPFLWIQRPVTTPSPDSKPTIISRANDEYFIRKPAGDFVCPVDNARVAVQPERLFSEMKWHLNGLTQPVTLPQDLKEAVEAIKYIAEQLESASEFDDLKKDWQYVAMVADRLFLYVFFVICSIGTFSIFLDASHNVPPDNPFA
T1 sequence (P02714 18-506): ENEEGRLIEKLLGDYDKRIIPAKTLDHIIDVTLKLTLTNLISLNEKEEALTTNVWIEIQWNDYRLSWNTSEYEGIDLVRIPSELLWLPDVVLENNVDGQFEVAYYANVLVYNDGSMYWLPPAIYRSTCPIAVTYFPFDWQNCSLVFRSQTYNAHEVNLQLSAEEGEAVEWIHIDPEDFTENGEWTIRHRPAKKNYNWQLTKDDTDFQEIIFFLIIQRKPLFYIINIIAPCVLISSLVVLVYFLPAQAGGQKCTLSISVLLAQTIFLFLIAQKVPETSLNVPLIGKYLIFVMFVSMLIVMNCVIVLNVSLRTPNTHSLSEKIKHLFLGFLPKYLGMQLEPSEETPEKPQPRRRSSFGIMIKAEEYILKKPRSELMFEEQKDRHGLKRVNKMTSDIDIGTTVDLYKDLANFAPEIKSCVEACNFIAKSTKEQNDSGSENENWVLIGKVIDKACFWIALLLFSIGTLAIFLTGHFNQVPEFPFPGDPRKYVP
T1 sequence (P02718 22-522): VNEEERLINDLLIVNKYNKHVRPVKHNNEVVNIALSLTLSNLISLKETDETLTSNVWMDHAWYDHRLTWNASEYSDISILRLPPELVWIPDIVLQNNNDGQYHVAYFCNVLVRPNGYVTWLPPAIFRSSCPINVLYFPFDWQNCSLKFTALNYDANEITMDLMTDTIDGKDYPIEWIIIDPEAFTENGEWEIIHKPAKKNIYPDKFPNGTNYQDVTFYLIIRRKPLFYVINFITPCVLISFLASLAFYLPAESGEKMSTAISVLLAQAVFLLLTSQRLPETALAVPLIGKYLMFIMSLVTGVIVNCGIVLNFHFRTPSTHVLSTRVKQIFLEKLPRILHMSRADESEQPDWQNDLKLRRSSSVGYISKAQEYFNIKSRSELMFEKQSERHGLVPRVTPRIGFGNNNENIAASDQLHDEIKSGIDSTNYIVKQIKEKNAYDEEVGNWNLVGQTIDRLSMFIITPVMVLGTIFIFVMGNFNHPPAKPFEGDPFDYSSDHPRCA

Q: With `CC(NC(C)(C)C)C(=O)c1ccc(N=[N+]=[N-])c(I)c1` (racemic) [SADU-3-72, (±)-2-(N-tert-butylamino)-3′-[^125I]-iodo-4′-azidopropiophenone] as the compound, how does the IC50 (Torpedo nAChR [1]; read-out: IC50, inhibition of [125I]SADU-3-72 binding, affinity-purified, lipid-reconstituted nAChR, absence of Carb (resting state)) read?
A: The IC50 was 2.3 ± 0.7 µM.

Q: What does the source list for `CC(NC(C)(C)C)C(=O)c1cccc(Cl)c1` (racemic) [bupropion, (±)-2-(tert-butylamino)-1-(3-chlorophenyl) propan-1-one]?
A: IC50 (Torpedo nAChR [2]): 0.34 µM and 0.3 µM; Hill coefficient nH of inhibition of ACh-induced currents (Torpedo nAChR [2]; co-applied with 50 μM ACh, n=7 oocytes): 0.98 ± 0.14; IC50 (Torpedo nAChR [1]; IC50, inhibition of [125I]SADU-3-72 binding, native nAChR-rich membranes, desensitized state (400 μM Carb)): 1.2 µM and 1 µM; fold higher affinity in the desensitized than in the resting state (Torpedo nAChR [1]; from inhibition of [125I]SADU-3-72 binding / photoincorporation): three-fold; IC50 (Torpedo nAChR [3]; IC50, inhibition of δ subunit [125I]SADU-3-72 photolabeling, presence of Carb (desensitized state)): 2.1 µM and 2 µM; reduction of agonist-enhanced [125I]SADU-3-72 photolabeling within αV8-20K (Torpedo nAChR [3]; desensitized state (Carb)): 70%; IC50 [4]: 0.4 µM

Q: Which “effect on [125I]SADU-3-72 labeling of δLeu265 (M2-9)” value (Torpedo nAChR [3]; desensitized state (400 μM Carb), 130 μM TCP, preparative photolabeling) does the source give for `c1csc(C2(N3CCCCC3)CCCCC2)c1` [TCP, 1-(1-(2-Thienyl)cyclohexyl) piperidine (tenocyclidine)] here?
A: The value was “eliminated”.

Q: And the “reduction of agonist-enhanced [125I]SADU-3-72 photolabeling within αV8-20K” value (Torpedo nAChR [3]; desensitized state (Carb))?
A: Its value is “not inhibited”.

Q: What about the “effect on [125I]SADU-3-72 β subunit labeling” value (Torpedo nAChR [3]; [5]) of the same compound?
A: Its value is “unchanged”.

Q: What about the “increase of [125I]SADU-3-72 photolabeling in α-subunit” value (Torpedo nAChR [3]; [5]) of the same compound?
A: The value was ~ 15%.

Q: And the “effect on [125I]SADU-3-72 labeling in βV8-22/23K, γV8-24K and δV8-14K fragments” value (Torpedo nAChR [3]; desensitized state (Carb), TCP (140 μM in Figure 5 legend))?
A: The value was “further inhibited labeling”.

Q: What about the inhibition at 130 µM (Torpedo nAChR [3]; read-out: inhibition of [125I]SADU-3-72 photolabeling in γ-subunit) of the same compound?
A: Its inhibition at 130 µM is about 35%.

Q: And the inhibition at 130 µM (Torpedo nAChR [3]; read-out: inhibition of [125I]SADU-3-72 photolabeling in δ-subunit)?
A: The inhibition at 130 µM was about 35%.

Q: With `CC(=O)OCC[N+](C)(C)C` [ACh, Acetylcholine] as the compound, how does the “Hill coefficient nH, ACh dose-response curve” value (Torpedo nAChR [2]; n=1) read?
A: Its value is 1.5.

Q: What does the source list for `CCCCNc1ccc(C(=O)OCCN(C)C)cc1` [tetracaine]?
A: inhibition at 130 µM (Torpedo nAChR [3]; read-out: inhibition of [125I]SADU-3-72 labeling within αV8-20K fragment): 49%; inhibition at 130 µM (Torpedo nAChR [3]; read-out: inhibition of [125I]SADU-3-72 labeling within βV8-22/23K fragment): 76%; inhibition at 130 µM (Torpedo nAChR [3]; read-out: inhibition of [125I]SADU-3-72 labeling within γV8-24K fragment): 79%; inhibition at 130 µM (Torpedo nAChR [3]; read-out: inhibition of [125I]SADU-3-72 labeling within δV8-14K fragment): 88%; reduction of [125I]SADU-3-72 photolabeling in α-subunit (Torpedo nAChR [3]; [6]): < 5%; reduction of [125I]SADU-3-72 photolabeling in β-subunit (Torpedo nAChR [3]; [6]): 55%; reduction of [125I]SADU-3-72 photolabeling in γ-subunit (Torpedo nAChR [3]; [6]): 51%; reduction of [125I]SADU-3-72 photolabeling in δ-subunit (Torpedo nAChR [3]; [6]): 73%; inhibition of [125I]-SADU-3-72 photoincorporation within subunit fragments containing the M2 segments (Torpedo nAChR [3]; resting state, αV8-20, βV8-22, γV8-24 and δV8-14): 50–90%
